Positions count from the first letter of the chain named. pIC50: −log10 of the molar value.
Legend:
[1] = target: T1, POLγA:G848S (Homo sapiens, UniProt P54098, G848S); assay: DNA polymerization assay, POLγA:G848S mutant; assay type: biochemical; conditions: stimulation of polymerase activity, primed M13mp18 ssDNA, 37° C. 2 hours; read-out: G848S AC50
T1 sequence (P54098 1-1239 G848S): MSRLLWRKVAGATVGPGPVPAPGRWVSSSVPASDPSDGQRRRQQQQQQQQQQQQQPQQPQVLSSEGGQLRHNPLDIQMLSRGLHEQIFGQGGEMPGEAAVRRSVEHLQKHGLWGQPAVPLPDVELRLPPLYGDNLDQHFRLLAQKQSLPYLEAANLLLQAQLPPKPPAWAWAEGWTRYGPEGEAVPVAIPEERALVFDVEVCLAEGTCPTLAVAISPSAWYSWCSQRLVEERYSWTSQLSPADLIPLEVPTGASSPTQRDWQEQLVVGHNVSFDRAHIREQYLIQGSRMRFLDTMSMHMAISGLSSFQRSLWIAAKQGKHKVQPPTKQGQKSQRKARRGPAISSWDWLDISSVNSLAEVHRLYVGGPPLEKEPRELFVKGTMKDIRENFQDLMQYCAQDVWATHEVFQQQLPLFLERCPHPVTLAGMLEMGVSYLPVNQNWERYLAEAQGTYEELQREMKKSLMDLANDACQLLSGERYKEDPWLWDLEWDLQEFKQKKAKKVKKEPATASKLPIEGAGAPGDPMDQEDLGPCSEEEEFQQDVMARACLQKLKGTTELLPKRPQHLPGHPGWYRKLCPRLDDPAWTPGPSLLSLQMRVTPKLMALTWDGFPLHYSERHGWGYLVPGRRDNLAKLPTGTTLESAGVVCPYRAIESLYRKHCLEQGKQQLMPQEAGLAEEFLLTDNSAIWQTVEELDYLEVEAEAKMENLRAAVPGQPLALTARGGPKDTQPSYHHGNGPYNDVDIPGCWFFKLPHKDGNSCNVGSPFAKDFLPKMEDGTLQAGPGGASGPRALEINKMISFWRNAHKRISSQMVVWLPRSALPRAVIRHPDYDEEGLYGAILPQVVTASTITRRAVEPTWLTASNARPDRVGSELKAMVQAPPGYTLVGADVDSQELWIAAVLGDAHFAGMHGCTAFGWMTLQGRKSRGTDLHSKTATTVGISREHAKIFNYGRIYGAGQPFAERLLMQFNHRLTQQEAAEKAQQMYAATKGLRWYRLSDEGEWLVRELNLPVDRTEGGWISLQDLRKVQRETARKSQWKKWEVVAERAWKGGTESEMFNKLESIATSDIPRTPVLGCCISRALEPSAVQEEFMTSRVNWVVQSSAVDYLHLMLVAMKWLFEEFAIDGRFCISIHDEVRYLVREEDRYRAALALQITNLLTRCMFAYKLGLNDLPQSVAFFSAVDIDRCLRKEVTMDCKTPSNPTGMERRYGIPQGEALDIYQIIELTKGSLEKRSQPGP
T1 sequence (Q9UHN1 1-485 partner): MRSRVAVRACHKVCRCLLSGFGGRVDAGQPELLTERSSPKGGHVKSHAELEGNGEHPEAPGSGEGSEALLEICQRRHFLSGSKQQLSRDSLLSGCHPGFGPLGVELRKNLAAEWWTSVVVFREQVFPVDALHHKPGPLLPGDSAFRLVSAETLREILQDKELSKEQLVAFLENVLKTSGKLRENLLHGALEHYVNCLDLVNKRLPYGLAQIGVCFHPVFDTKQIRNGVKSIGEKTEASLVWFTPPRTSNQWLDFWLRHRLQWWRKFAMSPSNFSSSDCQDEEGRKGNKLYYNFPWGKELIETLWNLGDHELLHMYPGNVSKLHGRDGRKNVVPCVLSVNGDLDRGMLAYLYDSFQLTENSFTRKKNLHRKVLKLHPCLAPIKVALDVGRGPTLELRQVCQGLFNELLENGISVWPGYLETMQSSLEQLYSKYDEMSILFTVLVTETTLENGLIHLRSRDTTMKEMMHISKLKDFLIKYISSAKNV
Method: DNA Polymerization Assay to Monitor Effects on Human Wildtype POLγ and Four Disease-Causing Mutant Variants of Human POLγ.
The ability of small molecules to stimulate the polymerase activity of POLγ was analyzed in a quantitative fluorescence SYBR Green I assay with fluorescence intensity (FI) readout.
In the presence of dNTPs, wild type human POLγ and mutant derivatives thereof were incubated with single-stranded, circular M13mp18 ssDNA hybridized to a short DNA oligonucleotide that functions as a primer for initiation of DNA synthesis. POLγ and mutant derivatives thereof will extend the primer and use the M13mp18 molecule as a template to synthesize long stretches of double-stranded DNA. SYBR Green I, which is a double-stranded DNA-binding dye, was used to quantify formation of double-stranded DNA in the reaction. When bound to double-stranded DNA, SYBR Green I fluorescence increases by up to 100-fold.
The assay was performed in the 384-well plate format. Upon addition of compounds, changes in double-stranded DNA synthesis activity can be monitored by following effects on fluorescent intensity.
The reactions also contained the accessory POLγB subunit, and the human mitochondrial single-stranded DNA binding protein (mtSSB).
The DNA template mixture used in the assay contained 0.5 nM primed M13 mp18 ssDNA, 400 nM mtSSB, 0.1 mM Tris-HCl (pH 8.0), 0.1 mM dNTP, 10 mM MgCl2, 0.1 mg/mL BSA, 1 mM TCEP solution, and 0.02% Triton X-100. The DNA template mixture for the wild type protein contained either 100 μM dNTP, 1 μM dNTP, or 0.1 μM dNTP, designated in Table 2 as 100 μM, 1 μM, and 0.1 μM, respectfully.
(§1) Microplates with compounds (0.1 μL in each well) to be tested in the assay were prepared from 10 mM compound stocks in 100% DMSO, and equal amounts of DMSO without any compound were added to positive and negative control wells.
The protein mixture was dispensed (5 μL into each well) into compound plates and incubated at 37° C. for 15 minutes. After incubation, 5 μL of the DNA template mixture was dispensed into each well. The plates were then incubated at 37° C. for 2 hours.
(§2) During incubation, a combined stop buffer and detection reagent solution was prepared. The buffer contained 25 mM EDTA (pH 8.0), 0.02% Triton X-100, and SYBR Green I [Invitrogen] diluted 10,000× (for fluorescent readout). EDTA will stop the enzymatic reaction by chelating magnesium ions.

[2] = target: T2, human POLγ 3′-5′ exonuclease activity (Homo sapiens, UniProt P54098); assay: Exonuclease inhibition assay with human POLγ (SYBR Green I fluorescence); assay type: biochemical; conditions: POLγA 1 nM, POLγB 1.3 nM, 5 nM exonuclease template, no dNTPs, 37° C. 2.5 hours
T2 sequence (P54098 1-1239): T1 sequence (P54098 1-1239 G848S) with S848G
T2 sequence (Q9UHN1 1-485 partner): T1 sequence (Q9UHN1 1-485 partner)
Method: Exonuclease inhibition assay with human POLγ.
The ability of small molecules to inhibit the 3′-5′ exonuclease activity of POLγ was analyzed in a quantitative fluorescence SYBR Green I assay with fluorescence intensity (FI) readout.
Human POLγ was incubated with a linear, partially double-stranded template containing an 85 base pair double-stranded DNA stretch and a 15 nucleotides long single-stranded 5′-tail (hereafter referred to as the “exonuclease template”). […] When bound to double-stranded DNA, SYBR Green I fluorescence increases by up to 100-fold. In the absence of deoxynucleotide triphosphates (dNTPs), the exonuclease activity of POLγ degrades the 85-mer strand, which leads to the formation of single-stranded DNA (ssDNA) and decreased fluorescent intensity. The assay was performed in a 384-well plate format.
The exonuclease template used was generated by hybridization of a 100 nucleotides long, single-stranded DNA molecule with an inverted dT at the 3′-end (5′-TTTTTTTTTATCCGGGCTCGTTATCTAAGCTGCTCTTGGTAGGCATTGACGTCCATACTGCAAATTCAGCTCTGTGCAGTTAGGCAGGAGTCTACAAGC invT-3′) to an 85 nucleotides long single-stranded DNA molecule (5′-AGCTTGTAGACTCCTGCCTAACTGCACAGAGCTGAATTTGCAGTATGGACGTCAATGCCTACCAGAGCAGCTTAGATAACGAGC-3′), using a Bio-Rad T100 Thermal Cycler. The inverted dT is characterized by a 3′-3′ linkage, which inhibits both degradation of the 3′-5′ exonuclease activity and extension by DNA polymerases.
POLγ is an heterotrimer of one POLγA subunit (harboring exonuclease and DNA polymerase activities) and two accessory POLγB subunits. Proteins used in the exonuclease assay were POLγA (NP_002684) and POLγB (NP_009146).
The protein mixture used in the assays contained POLγA (1 nM), POLγB (1.3 nM, concentration calculated as a dimer), 25 mM Tris-HCl (pH 8.0), 0.1 mg/mL bovine serum albumin, 1 mM Bond-Breaker TCEP solution (pH 7) [Thermo Fisher], 25 mM NaCl, and 0.02% Triton X-100.
The DNA template mixture used in the assay contained 5 nM of the exonuclease template, 25 mM Tris-HCl (pH 8.0), 10 mM MgCl2, 0.1 mg/mL bovine serum albumin, 1 mM Bond-Breaker TCEP solution [Thermo Fisher], and 0.02% Triton X-100.
as §1
The protein mixture containing POLγ was dispensed (5 μL in each well) into compound plates and incubated at 37° C. for 15 minutes to allow compound binding to the POLγ complex. After incubation, 5 μL of the DNA template mixture was dispensed into each well. The plates were incubated at 37° C. for 2.5 hours.
as §2
After the 2.5-hour incubation period, the SYBR Green I solution was added (10 μL) to the screening plates and the plates were incubated at room temperature in the dark for 20 minutes before the fluorescent signal was read between […] on a BMG Pherastar microtiter plate reader.

Row | AC50 [1] [µM] | pIC50 [2] | SMILES
1 | > 100 |  | Cc1cc(S(=O)(=O)Nc2cccc(C(=O)N[C@@H](C)c3ccccc3)c2)c(C)cc1Cl [Example 45, (S)-3-((4-chloro-2,5-dimethylphenyl)sulfonamido)-N-(1-phenylethyl)benzamide]
2 |  | 5.15 | Cc1cc(S(=O)(=O)Nc2cccc(-c3nc(C4CC4)cn3C)c2)c(C)cc1Cl [Example 186, 4-chloro-N-(3-(4-cyclopropyl-1-methyl-1H-imidazol-2-yl)phenyl)-2,5-dimethylbenzenesulfonamide]

Reference: patent publication US20260138961A1, “MODULATORS OF MITOCHONDRIAL DNA REPLICATION” (Pretzel Therapeutics, Inc., priority 2022, published 2026)
